We go through 22 molecules from US11267825B2 (AICURIS GMBH & CO. KG, priority 2017, dated 2022).

Assay [1] concerns HBV. Kind of assay: Determination of HBV DNA from the supernatants of HepAD38 cells (anti-HBV activity). It counts as cell-based, hepatitis B virus. The following applies: Hepatitis B virus, 144 h; HBV DNA in HepAD38 supernatant at day 6; read-out: Cell Activity (EC50). An outline of the steps: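 EC50 values were obtained by non-linear regression of HBV DNA copy numbers measured by qPCR against pCH-9/3091 plasmid standards. The DNA came from filtered supernatants collected on day 6. Before that, tetracycline-withdrawn HepAD38 cells had been exposed to serial half-log compound dilutions, with tetracycline-treated cells as the non-producing control.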

Assay [2] deals with HBV core protein (UniProt P03146). The class given is biochemical. The following applies: read-out: Assembly Activity (IC50); BODIPY-FL labelled core protein, assembly started with NaCl, read after 6 min. The protocol: Biochemical Capsid Assembly Assay
The screening for assembly effector activity was done based on a fluorescence quenching assay published by Zlotnick et al. (2007). The C-terminal truncated core protein containing 149 amino acids of the N-terminal assembly domain was fused to a unique cysteine residue at position 150 and was expressed in E. coli using the pET expression system (Merck Chemicals, Darmstadt). Purification of core dimer protein was performed using a sequence of size exclusion chromatography steps. In brief, the cell pellet from 1 L BL21 (DE3) Rosetta2 culture expressing the coding sequence of core protein cloned NdeI/XhoI into expression plasmid pET21b was treated for 1 h on ice with a native lysis buffer (Qproteome Bacterial Protein Prep Kit; Qiagen, Hilden). After a centrifugation step the supernatant was precipitated during 2 h stirring on ice with 0.23 g/ml of solid ammonium sulfate. Following further centrifugation the resulting pellet was resolved in buffer A (100 mM Tris, pH 7.5; 100 mM NaCl; 2 mM DTT) and was subsequently loaded onto a buffer A equilibrated CaptoCore 700 column (GE HealthCare, Frankfurt). The column flow through containing the assembled HBV capsid was dialyzed against buffer N (50 mM NaHCO3 pH 9.6; 5 mM DTT) before urea was added to a final concentration of 3M to dissociate the capsid into core dimers for 1.5 h on ice. The protein solution was then loaded onto a 1 L Sephacryl S300 column. After elution with buffer N core dimer containing fractions were identified by SDS-PAGE and subsequently pooled and dialyzed against 50 mM HEPES pH 7.5; 5 mM DTT. To improve the assembly capacity of the purified core dimers a second round of assembly and disassembly starting with the addition of 5 M NaCl and including the size exclusion chromatography steps described above was performed. From the last chromatography step core dimer containing fractions were pooled and stored in aliquots at concentrations between 1.5 to 2.0 mg/ml at −80° C.
Immediately before labelling the core protein was reduced by adding freshly prepared DTT in a final concentration of 20 mM. After 40 min incubation on ice storage buffer and DTT was removed using a Sephadex G-25 column (GE HealthCare, Frankfurt) and 50 mM HEPES, pH 7.5. For labelling 1.6 mg/ml core protein was incubated at 4° C. and darkness overnight with BODIPY-FL maleimide (Invitrogen, Karlsruhe) in a final concentration of 1 mM. After labelling the free dye was removed by an additional desalting step using a Sephadex G-25 column. Labelled core dimers were stored in aliquots at 4° C. In the dimeric state the fluorescence signal of the labelled core protein is high and is quenched during the assembly of the core dimers to high molecular capsid structures. The screening assay was performed in black 384 well microtiter plates in a total assay volume of 10 μl using 50 mM HEPES pH 7.5 and 1.0 to 2.0 μM labelled core protein. Each screening compound was added in 8 different concentrations using a 0.5 log-unit serial dilution starting at a final concentration of 100 μM, 31.6 μM or 10 μM. In any case the DMSO concentration over the entire microtiter plate was 0.5%. The assembly reaction was started by the injection of NaCl to a final concentration of […] which induces the assembly process to approximately 25% of the maximal quenched signal. 6 min after starting the reaction the fluorescence signal was measured using a Clariostar plate reader (BMG Labtech, Ortenberg) with an excitation of 477 nm and an emission of 525 nm. As 100% and 0% assembly control HEPES buffer containing 2.5 M and 0 M NaCl was used. Experiments were performed thrice in triplicates. EC50 values were calculated by non-linear regression analysis using the Graph Pad Prism 6 software (GraphPad Software, La Jolla, USA).

Sequence of HBV core protein (P03146 whole entry, looked up, the tested form may be a part): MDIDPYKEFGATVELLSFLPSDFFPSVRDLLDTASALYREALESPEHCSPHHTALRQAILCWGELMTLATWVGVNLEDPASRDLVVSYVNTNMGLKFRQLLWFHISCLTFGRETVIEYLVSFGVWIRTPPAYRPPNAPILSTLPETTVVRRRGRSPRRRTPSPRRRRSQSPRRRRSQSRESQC

`O=C(c1cc2c(Cl)cc(F)cc2[nH]1)N1CCc2nc(NC3CCOC3)sc2C1` (centres unmarked) [Example 140, 5-(4-chloro-6-fluoro-1H-indole-2-carbonyl)-N-(oxolan-3-yl)-4H,5H,6H,7H-[1,3]thiazolo[5,4-c]pyridin-2-amine]: the EC50 in assay [1] was less than 1 µM. Moreover, the IC50 in assay [2] is less than 5 µM.
`O=C(c1cc2ccccc2[nH]1)N1CCc2nc(CN3CCOCC3)sc2C1` [Example 39, 2-{2-[(morpholin-4-yl)methyl]-4H,5H,6H,7H-[1,3]thiazolo[5,4-c]pyridine-5-carbonyl}-1H-indole]: the EC50 in assay [1] was less than 1 µM. Also, in assay [2], the IC50 is less than 5 µM.
The matching figures for `CCc1cc(F)cc2[nH]c(C(=O)N3CCc4nc(N)sc4C3)cc12` [Example 7, 5-(4-ethyl-6-fluoro-1H-indole-2-carbonyl)-4H,5H,6H,7H-[1,3]thiazolo[5,4-c]pyridin-2-amine]: less than 1 µM and less than 5 µM.
In the same order, the values of `CC(O)c1cccc2[nH]c(C(=O)N3CCc4nc(NCC5(CO)CC5)sc4C3)cc12` (centres unmarked) [Example 250, 1-{2-[2-({[1-(hydroxymethyl)cyclopropyl]methyl}amino)-4H,5H,6H,7H-[1,3]thiazolo[5,4-c]pyridine-5-carbonyl]-1H-indol-4-yl}ethan-1-ol] are less than 1 µM and less than 100 µM.
In the same order, the values of `O=C(c1cc2ccccc2[nH]1)N1CCc2nc(NCC3CC3)sc2C1` [Example 96, N-(cyclopropylmethyl)-5-(1H-indole-2-carbonyl)-4H,5H,6H,7H-[1,3]thiazolo[5,4-c]pyridin-2-amine] are less than 1 µM and less than 5 µM.
Regarding `CCc1cccc2[nH]c(C(=O)N3CCc4nc(NC(=O)C5(C)CC5)sc4C3)cc12` [Example 333, N-[5-(4-ethyl-1H-indole-2-carbonyl)-4H,5H,6H,7H-[1,3]thiazolo[5,4-c]pyridin-2-yl]-1-methylcyclopropane-1-carboxamide], the EC50 in assay [1] is less than 1 µM. For the same molecule, the IC50 in assay [2] is less than 5 µM.
The matching figures for `COC1(CNc2nc3c(s2)CN(C(=O)c2cc4ccccc4[nH]2)CC3)CCC1` [Example 414, 5-(1H-indole-2-carbonyl)-N-[(1-methoxycyclobutyl)methyl]-4H,5H,6H,7H-[1,3]thiazolo[5,4-c]pyridin-2-amine]: less than 1 µM and less than 5 µM.
The matching figures for `Nc1nc2c(s1)CN(C(=O)c1cc3c(C(F)F)cc(F)cc3[nH]1)CC2` [Example 292, 5-[4-(difluoromethyl)-6-fluoro-1H-indole-2-carbonyl]-4H,5H,6H,7H-[1,3]thiazolo[5,4-c]pyridin-2-amine]: less than 1 µM and less than 5 µM.
For `O=C(c1cc2ccccc2[nH]1)N1CCc2nc(N[C@H]3COCC[C@@H]3O)sc2C1` (racemic) [Example 339, (±)-3-{[5-(1H-indole-2-carbonyl)-4H,5H,6H,7H-[1,3]thiazolo[5,4-c]pyridin-2-yl]amino}oxan-4-ol], the EC50 in assay [1] was less than 1 µM. Also, in assay [2], the IC50 is 5 to 10 µM.
The matching figures for `Cc1cc(F)cc2[nH]c(C(=O)N3CCc4nc(NCC5CCOC5)sc4C3)cc12` (centres unmarked) [Example 120, 5-(6-fluoro-4-methyl-1H-indole-2-carbonyl)-N-[(oxolan-3-yl)methyl]-4H,5H,6H,7H-[1,3]thiazolo[5,4-c]pyridin-2-amine]: less than 1 µM and less than 5 µM.
In the case of `O=C(c1cc2c(Cl)cccc2[nH]1)N1CCc2nc(N[C@H]3CC[C@@H](O)CC3)sc2C1` [Example 302, (1s,4s)-4-{[5-(4-chloro-1H-indole-2-carbonyl)-4H,5H,6H,7H-[1,3]thiazolo[5,4-c]pyridin-2-yl]amino}cyclohexan-1-ol], in assay [1], the EC50 is less than 1 µM. The IC50 in assay [2] is less than 5 µM.
Take `Cc1cc(F)cc2[nH]c(C(=O)N3CCc4nc(NC5(CO)CCC5)sc4C3)cc12` [Example 298, (1-{[5-(6-fluoro-4-methyl-1H-indole-2-carbonyl)-4H,5H,6H,7H-[1,3]thiazolo[5,4-c]pyridin-2-yl]amino}cyclobutyl)methanol]: the EC50 in assay [1] was less than 1 µM. In addition, the IC50 in assay [2] was less than 5 µM.
In the same order, the values of `CCC(C)(C)CC(=O)Nc1nc2c(s1)CN(C(=O)c1cc3ccccc3[nH]1)CC2` [Example 262, N-[5-(1H-indole-2-carbonyl)-4H,5H,6H,7H-[1,3]thiazolo[5,4-c]pyridin-2-yl]-3,3-dimethylpentanamide] are less than 1 µM and less than 100 µM.
The matching figures for `O=C(c1cc2c(Cl)cccc2[nH]1)N1CCc2nc(NC3(CO)CCC3)sc2C1` [Example 224, (1-{[5-(4-chloro-1H-indole-2-carbonyl)-4H,5H,6H,7H-[1,3]thiazolo[5,4-c]pyridin-2-yl]amino}cyclobutyl)methanol]: less than 1 µM and less than 5 µM.
Take `Nc1nc2c(s1)CN(C(=O)c1cc3c(Cl)cccc3[nH]1)CC2` [Example 210, 5-(4-chloro-1H-indole-2-carbonyl)-4H,5H,6H,7H-[1,3]thiazolo[5,4-c]pyridin-2-amine]: the EC50 in assay [1] was less than 1 µM. The IC50 in assay [2] is less than 5 µM.
The matching figures for `Nc1nc2c(s1)CN(C(=O)c1cc3c(Br)c(F)ccc3[nH]1)CC2` [Example 130, 5-(4-bromo-5-fluoro-1H-indole-2-carbonyl)-4H,5H,6H,7H-[1,3]thiazolo[5,4-c]pyridin-2-amine]: 1 to 10 µM and less than 100 µM.
The matching figures for `O=C(c1cc2ccccc2[nH]1)N1CCc2nc(NCC3(O)COC3)sc2C1` [Example 44, 3-({[5-(1H-indole-2-carbonyl)-4H,5H,6H,7H-[1,3]thiazolo[5,4-c]pyridin-2-yl]amino}methyl)oxetan-3-ol]: less than 1 µM and less than 5 µM.
As for `Nc1nc2c(s1)CN(C(=O)c1cc3cccc(Br)c3[nH]1)CC2` [Example 171, 5-(7-bromo-1H-indole-2-carbonyl)-4H,5H,6H,7H-[1,3]thiazolo[5,4-c]pyridin-2-amine], the EC50 in assay [1] is less than 1 µM. Further, in assay [2], the half-maximal inhibitory concentration (IC50) is less than 5 µM.
As for `O=C(c1cc2c(C(F)F)ccc(F)c2[nH]1)N1CCc2nc(NCC3CCOC3)sc2C1` (centres unmarked) [Example 322, 5-[4-(difluoromethyl)-7-fluoro-1H-indole-2-carbonyl]-N-[(oxolan-3-yl)methyl]-4H,5H,6H,7H-[1,3]thiazolo[5,4-c]pyridin-2-amine], the EC50 in assay [1] was less than 1 µM. For the same molecule, the IC50 in assay [2] is less than 5 µM.
The matching figures for `O=C(c1cc2c(F)cc(F)cc2[nH]1)N1CCc2nc(NCC3(CO)CC3)sc2C1` [Example 75, [1-({[5-(4,6-difluoro-1H-indole-2-carbonyl)-4H,5H,6H,7H-[1,3]thiazolo[5,4-c]pyridin-2-yl]amino}methyl)cyclopropyl]methanol]: less than 1 µM and less than 5 µM.
The matching figures for `CC(C)[C@H](N)C(=O)OCC1(CNc2nc3c(s2)CN(C(=O)c2cc4ccccc4[nH]2)CC3)CC1` [Example 235, [1-({[5-(1H-indole-2-carbonyl)-4H,5H,6H,7H-[1,3]thiazolo[5,4-c]pyridin-2-yl]amino}methyl)cyclopropyl]methyl (2S)-2-amino-3-methylbutanoate]: less than 1 µM and less than 5 µM.
In the same order, the values of `Nc1nc2c(s1)CN(C(=O)c1cc3c(Br)ccc(O)c3[nH]1)CC2` [Example 93, 2-{2-amino-4H,5H,6H,7H-[1,3]thiazolo[5,4-c]pyridine-5-carbonyl}-4-bromo-1H-indol-7-ol] are less than 100 µM and less than 100 µM.

One may read the EC50 as the concentration at which the effect is half-maximal. Broadly, the IC50 is the concentration needed to halve the response being measured.
